Source: patent publication US20210299657A1, “Method for Development of Microfluidic Assay Device Prototype” (University of Manitoba, priority 2018, published 2021)

Columns and labels:
[1] = system: MDA-MB-231 breast cancer cells; experiment: Radial microfluidic chemotaxis assay, MDA-MB-231 cells (migration distance); format: cell-based, human; settings: for chemotaxis response (migration distance) to the EGF gradient after inhibitor treatment: MDA-MB-231 cells with reduced HMGA2 levels after LIN28 inhibitor, 6 h migration
Description: (§1) The device pattern was designed using AUTOCAD and printed on a transparent film at high resolution. The SU-8 device master was fabricated on a 3-inch silicon wafer by a two-layer photolithography (10). The first layer defines the cell docking structure that is used to align the cells to one side of the gradient channel prior to migration (FIG. 2). Its thickness should be cell specific, with it being slightly lower than the cell size but not be too low to prevent the cells from crossing, as described herein. We chose ˜2.5 μm for neutrophils and ˜7 μm for breast cancer cells. The Polydimethylsiloxane (PDMS) (Sylgard 184; Dow Corning, Midland, USA) device was fabricated using soft-lithography. Inlets (6 mm diameter), outlets (4 mm diameter), and the cell loading port (2 mm diameter) were punched. The PDMS replica was bonded to a glass slide to seal the channels after plasma treatment. The device channels were coated using rat tail collagen type I (3.8 μg/mL; Advanced BioMatrix, San Diego, USA) for one hour and then blocked by 0.4% BSA in RPMI medium for another hour before the migration experiment.
(§2) Two microliters of cell suspension were added to the cell loading port of each unit. When the cells had collected in the docking area, chemoattractant solution and migration medium were added to the corresponding inlets (FIG. 2). We used 100 nM IL-8 and 100 nM fMLP dissolved in RPMI-1640 with 0.4% BSA neutrophils. For the migration studies with the human breast cancer cells, EGF (10 ng/ml, 50 ng/ml, 100 ng/ml, 200 ng/ml) dissolved in DMEM/ F-12 plus 1% FBS served as chemoattractant.
(§3) To characterize proper gradient generation, FITC-dextran (10 kD; Sigma, Oakville, Canada) was added to the solution containing the chemoattractant and fluorescent images were captured using an inverted fluorescent microscope (Ti-U; Nikon, Mississauga, Canada). Upon adding the chemoattractant solution, the inlets were covered and connected with silicone oil (A12728-22, density=0.963 g/ml; Alfa Aesar, Tewksbury, USA) to balance the pressure difference between the two inlets (FIG. 3A). The microscope stage was enclosed by an environmental control chamber to maintain the temperature at 37° C. during the cell migration experiments. Time-lapse images (10 sec intervals for neutrophils and 3 min intervals for the breast cancer cells) recorded cell migration. The faster migration of neutrophils was recorded for 20 minutes, whereas migration of the breast cancer cells was monitored for 6 hours.
Cell migration and chemotaxis were quantified by calculating the migration distance the cells moved away from the docking site. For MDA-MB-231 experiments, trajectories of representative cells were tracked by manual tracking method using ImageJ. The migration angle ϕ is defined as the angle of the cell displacement vector in relation to the direction of the gradient and was calculated in 12 min intervals. The cosine of ϕ was used to indicate the directionality of cell migration relative to the gradient: 1 indicates cell migration perfectly along the gradient direction; −1 indicates cell migration along the opposite direction of the gradient; a value between 1 and −1 indicates the level of deviation of cell migration from the gradient direction. The cell shape was outlined using ImageJ. Each condition was repeated in at least three independent experiments. For statistical analysis, the two-sample Student's t-test was used to compare different conditions using OriginPro. P<0.05 was considered statistically significant and indicated by an asterisk.

[2] = system: HMGA2 over-expressing and mock MDA-MB-231 stable transfectants; experiment: Radial microfluidic chemotaxis assay, HMGA2 over-expressing and mock MDA-MB-231 stable transfectants; format: cell-based, human
Description: (§4) Interleukin-8 (IL8) (R&D systems, Minneapolis, USA), N-Formylmethionyl-leucyl-phenylalanine (fMLP) (Sigma, Oakville, Canada) and epidermal growth factor (EGF) (Bachem, Torrance, USA) were used as the chemoattractant for neutrophils and breast cancer cells, respectively, in the radial microfluidic chip. Neutrophils were isolated from blood of healthy donors using a negative magnetic isolation kit (STEMCELL, Vancouver, Canada). The human breast cancer cell lines MDA-MB-231 and MCF-7 were obtained from ATCC and cultured in DMEM/F12 plus 5% FBS. MDA-MB-231 cells containing a pcDNA3 human full-size HMGA2 expression construct or an empty vector control, as well as HMGA2-knockout MDA-MB-231 cells transduced with a specific lentiviral CRISPR/Cas9 construct (pLV-U6g-EPCG-HMGA2, HS0000278246; Sigma, Oakville, Canada), were cultured with DMEM/F12 medium plus 5% FBS. We employed a rabbit polyclonal anti-HMGA2 antibody (Cell Signalling Technologies, Whitby, Canada) in Western blot analysis to identify MDA-MB-231 clones with homozygous deletion of HMGA2. The small molecule Lin28 inhibitor 1632 (R&D Systems, Minneapolis, USA) was used at 10 and 20 μM to down-regulate endogenous HMGA2 in MDA-MB-231 cells.
as §2
as §3, with “The microscope stage was enclosed by an environmental control chamber to maintain the temperature at 37° C. during the cell migration experiments.” left out
(§5) Cell migration and chemotaxis were quantified by calculating the migration distance the cells moved away from the docking site. […] The migration angle ϕ is defined as the angle of the cell displacement vector in relation to the direction of the gradient and was calculated in 12 min intervals. […]

human blood neutrophils = experiment: Radial microfluidic chemotaxis assay, neutrophils (migration distance); format: cell-based; settings: for neutrophil chemotaxis: 100 nM gradient, 20-minute migration experiment
Description: as §1
Two microliters of cell suspension were added to the cell loading port of each unit. […]
To characterize proper gradient generation, FITC-dextran (10 kD; Sigma, Oakville, Canada) was added to the solution containing the chemoattractant and fluorescent images were captured using an inverted fluorescent microscope (Ti-U; Nikon, Mississauga, Canada). […] Time-lapse images (10 sec intervals for neutrophils and 3 min intervals for the breast cancer cells) recorded cell migration. The faster migration of neutrophils was recorded for 20 minutes, whereas migration of the breast cancer cells was monitored for 6 hours.
as §5

[3] = system: endogenous HMGA2 protein levels in MDA-MB-231 cells; experiment: Western blot analysis of HMGA2 protein in MDA-MB-231 cells; format: cell-based, human; settings: 72 h of treatment; for endogenous HMGA2 protein levels: 10 and 20 μM
Description: as §4
To test this hypothesis and further characterize the role of HMGA2 in chemotaxis of MDA-MB-231, we opted for a pharmacological (LIN28 inhibitor 1632) and CRISPR/Cas9 mediated HMGA2 knockout strategy (FIG. 4B-C). […] Next, we treated MDA-MB-231 with a specific CRISPR/Cas9 lentiviral construct and the homozygous loss of HMGA2 expression in MDA-MB-231 HMGA2 knockout (KO) cells was confirmed by Western blot analysis (FIG. 6C). When exposed to a 100 ng/mL EGF gradient in the radial microfluidic chemotaxis assays, we observed a marked reduction in migration distance in MDA-MB-231 KO clones when compared to parental MDA-MB-231 (FIG. 7C). […] This novel higher throughput device may be a valuable new tool to excel the search for new therapeutic drugs and small molecules that can mitigate chemotaxis in inflammatory and tumor cells. […]

## EGF: epidermal growth factor (Bachem), chemoattractant for breast cancer cells (NSDSECPLSHDGYCLHDGVCMYIEALDKYACNCVVGYIGERCQYRDLKWWELR; Epidermal growth factor; UniProt P01133 971-1023, looked up)
[1]; 200, 100, and 50 ng/ml EGF gradient
  migration of MDA-MB-231 cells in EGF gradient: optimal and comparable migration
[1]; EGF 10 ng/ml gradient, compared with higher EGF concentrations
  directional migration of MDA-MB-231 cells in EGF gradient: directional migration decreased significantly
[1]; EGF gradient 100 ng/mL, 6 h
  migration of MDA-MB-231 cells in EGF gradient: actively migrated out of the docking structure towards the EGF gradient
[1]; gradient with input EGF concentration 10 ng/mL
  directional migration of MDA-MB-231 cells, low input EGF gradient: significantly increase directional migration
[1]; uniform field of EGF 100 ng/mL, 6 h
  migration of MDA-MB-231 cells in uniform EGF field: remained stationary in the docking structure and failed to show a chemotaxis response
[2]; EGF gradient 10 ng/mL vs uniform EGF field 50 ng/mL or normal medium
  migration of transfectants at lowest EGF gradient vs uniform field or medium: significantly stronger migration
[2]; EGF gradient 10 ng/mL, compared with the other EGF gradients
  migration distance of transfectants from the docking site, lowest EGF gradient: migrate the shortest distance
[2]; EGF gradients 200, 100, 50 and 10 ng/mL, 6 h
  migration of transfectants in EGF gradients: enhanced and directional migration with all EGF gradients tested
[2]; uniform EGF field 50 ng/mL, 6 h
  migration of transfectants in uniform EGF field: such migratory behaviour was absent

## IL-8: Interleukin-8 (R&D systems), chemoattractant for neutrophils
Human blood neutrophils
  neutrophil chemotaxis: stimulated neutrophil chemotaxis

## CC(=O)N(C)c1cccc(-c2ccc3nnc(C)n3n2)c1 [LIN28 inhibitor 1632]
[1]
  chemotaxis response (migration distance) to the EGF gradient after inhibitor treatment: markedly reduced migratory behavior
[1]; listed as 1632
  chemotaxis response (migration distance) to the EGF gradient after inhibitor treatment: markedly reduced chemotaxis
[1]; listed as LIN28 inhibitor
  chemotaxis response (migration distance) to the EGF gradient after inhibitor treatment: significant reduction in chemotaxis response to the EGF gradient
[3]; 20 μM
  presence of HMGA2 protein: almost completely abolished the presence of HMGA2
[3]
  endogenous HMGA2 protein levels: down-regulated endogenous HMGA2 protein levels
[3]; listed as LIN28 inhibitor
  endogenous HMGA2 protein levels: verifiable reduction of endogenous HMGA2 levels

## CSCC[C@H](NC=O)C(=O)N[C@@H](CC(C)C)C(=O)N[C@@H](Cc1ccccc1)C(=O)O [fMLP, N-Formylmethionyl-leucyl-phenylalanine]
Human blood neutrophils; 100 nM fMLP gradient vs 100 nM IL-8 gradient, 20 minutes
  chemotaxis response with the fMLP gradient relative to the IL-8 gradient: more than 3 fold
Human blood neutrophils
  neutrophil chemotaxis: stimulated neutrophil chemotaxis
